Results as given in US9901602B2, “Ejaculum of animals as medicinal material and uses thereof in medicaments for treatment of diseases such as tumors, depression, etc” (Hui CHENG, priority 2008, dated 2018).

Tested on: S180 tumor cells (mouse sarcoma)
Settings: mice sarcoma S180, stomach lavage, 0.3 ml/10 g body weight/day×10
Source text: The mice inoculated by S180 tumor cells (mouse sarcoma) were used as model animals.
In the meantime, non-inoculated mice were feed and used as the native control group.

In the case of `O=P1(N(CCCl)CCCl)NCCCO1` (centres unmarked) [cyclophosphamide], the “Mice body (GPT)” value is reported as 39.2 ± 5.69 and the “Weight of Tumor (g) (X ± SD)” value is reported as 0.614 ± 0.268 g.
